Reference: ChEMBL document CHEMBL1201861, “Genomics of Drug Sensitity in Cancer screening data, Wellcome Trust Sanger Institute”

Legend:
Experiment in all cases: cells
Assay type in all cases: functional, cell-based, Homo sapiens
G-401 = system: G-401
Description: SANGER: Inhibition of human G-401 cell growth in a cell viability assay.

HT55 = system: HT55;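 also: cell viability readout measuring growth inhibition of human HT55 cells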
Description: SANGER: Inhibition of human HT55 cell growth in a cell viability assay.

RVH-421 = system: RVH-421
Description: SANGER: Inhibition of human RVH-421 cell growth in a cell viability assay.

NCI-H2122 = system: NCI-H2122;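 also: growth inhibition of the cells, read out with a cell viability assay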
Description: SANGER: Inhibition of human NCI-H2122 cell growth in a cell viability assay.

NB14 = system: NB14;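 also: growth inhibition of NB14 cells measured with a cell viability assay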
Description: SANGER: Inhibition of human NB14 cell growth in a cell viability assay.

CaR-1 = system: CaR-1;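 also: growth inhibition of human CaR-1 cancer cells, read out with a cell viability assay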
Description: SANGER: Inhibition of human CaR-1 cell growth in a cell viability assay.

SK-OV-3 = system: SK-OV-3;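 also: growth inhibition of SK-OV-3 human cells, read out with a cell viability assay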
Description: SANGER: Inhibition of human SK-OV-3 cell growth in a cell viability assay.

KYSE-180 = system: KYSE-180;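 also: growth inhibition of KYSE-180 cells, read out with a cell viability assay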
Description: SANGER: Inhibition of human KYSE-180 cell growth in a cell viability assay.

NCI-H1792 = system: NCI-H1792;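 also: growth inhibition of human NCI-H1792 cells, read out as cell viability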
Description: SANGER: Inhibition of human NCI-H1792 cell growth in a cell viability assay.

OE19 = system: OE19;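 also: growth inhibition of OE19 cells, measured through a cell viability read-out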
Description: SANGER: Inhibition of human OE19 cell growth in a cell viability assay.

DMS-273 = system: DMS-273
Description: SANGER: Inhibition of human DMS-273 cell growth in a cell viability assay.

COLO-680N = system: COLO-680N;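 also: cell viability assay used to measure inhibition of COLO-680N cell growth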
Description: SANGER: Inhibition of human COLO-680N cell growth in a cell viability assay.

MOLT-13 = system: MOLT-13;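 also: IC50 for suppression of MOLT-13 cell growth, read out with a cell viability assay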
Description: SANGER: Inhibition of human MOLT-13 cell growth in a cell viability assay.

Hs-578T = system: Hs-578T
Description: SANGER: Inhibition of human Hs-578-T cell growth in a cell viability assay.

HN = system: HN
Description: SANGER: Inhibition of human HN cell growth in a cell viability assay.

A2780 = system: A2780;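 also: growth inhibition of A2780 cells, read out with a cell viability assay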
Description: SANGER: Inhibition of human A2780 cell growth in a cell viability assay.

UMUC3 = system: UMUC3;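 also: growth inhibition of human UM-UC-3 cells, read out with a cell viability assay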
Description: SANGER: Inhibition of human UM-UC-3 cell growth in a cell viability assay.

KYSE-450 = system: KYSE-450;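 also: cell growth inhibition measured by a viability assay in human KYSE-450 cells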
Description: SANGER: Inhibition of human KYSE-450 cell growth in a cell viability assay.

ChaGo-K-1 = system: ChaGo-K-1;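 also: growth inhibition of ChaGo-K-1 cells, read out with a cell viability assay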
Description: SANGER: Inhibition of human ChaGo-K-1 cell growth in a cell viability assay.

NCI-H1703 = system: NCI-H1703;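 also: growth inhibition of NCI-H1703 cells, read out via a cell viability assay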
Description: SANGER: Inhibition of human NCI-H1703 cell growth in a cell viability assay.

MC-IXC = system: MC-IXC;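 also: growth inhibition of MC-IXC cells, read out with a cell viability assay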
Description: SANGER: Inhibition of human MC-IXC cell growth in a cell viability assay.

NCI-H460 = system: NCI-H460;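 also: cell viability assay scoring growth inhibition of human NCI-H460 cells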
Description: SANGER: Inhibition of human NCI-H460 cell growth in a cell viability assay.

NCI-H1623 = system: NCI-H1623;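 also: cell viability assay used as the read-out for growth inhibition of NCI-H1623 cells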
Description: SANGER: Inhibition of human NCI-H1623 cell growth in a cell viability assay.

MDA-MB-157 = system: MDA-MB-157
Description: SANGER: Inhibition of human MDA-MB-157 cell growth in a cell viability assay.

SW-620 = system: SW-620;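 also: growth inhibition of human SW-620 cells, measured by a cell viability assay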
Description: SANGER: Inhibition of human SW620 cell growth in a cell viability assay.

GMS-10 = system: GMS-10;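 also: growth inhibition of GMS-10 cells, read out as cell viability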
Description: SANGER: Inhibition of human GMS-10 cell growth in a cell viability assay.

T-24 = system: T-24;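 also: growth inhibition of T-24 cells, read out with a cell viability assay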
Description: SANGER: Inhibition of human T-24 cell growth in a cell viability assay.

COLO-792 = system: COLO-792
Description: SANGER: Inhibition of human COLO-792 cell growth in a cell viability assay.

HOS = system: HOS;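 also: growth inhibition of human HOS cells, read out with a cell viability assay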
Description: SANGER: Inhibition of human HOS cell growth in a cell viability assay.

FaDu = system: FaDu;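 also: cell viability readout of growth inhibition in FaDu cells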
Description: SANGER: Inhibition of human FADU cell growth in a cell viability assay.

Capan-2 = system: Capan-2;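 also: Capan-2 cell growth inhibition, read out with a viability assay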
Description: SANGER: Inhibition of human Capan-2 cell growth in a cell viability assay.

HT-1080 = system: HT-1080
Description: SANGER: Inhibition of human HT-1080 cell growth in a cell viability assay.

HCC1954 = system: HCC1954;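 also: growth inhibition of human HCC1954 cells, read out with a cell viability assay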
Description: SANGER: Inhibition of human HCC1954 cell growth in a cell viability assay.

NCI-H1693 = system: NCI-H1693;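 also: growth inhibition of the human cell line, read out with a cell viability assay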
Description: SANGER: Inhibition of human NCI-H1693 cell growth in a cell viability assay.

CAL-12T = system: CAL-12T;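 also: growth inhibition of human CAL-12T cells, read out with a cell viability assay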
Description: SANGER: Inhibition of human CAL-12T cell growth in a cell viability assay.

CAL-54 = system: CAL-54;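 also: growth inhibition of CAL-54 cells, read out by a viability measurement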
Description: SANGER: Inhibition of human CAL-54 cell growth in a cell viability assay.

Nc1cccc2c1CN(C1CCC(=O)NC1=O)C2=O (centres undefined) [LENALIDOMIDE]
IC50 (G-401; Homo sapiens, G-401): > 5 µM
IC50 (HT55; Homo sapiens, HT55): > 5 µM
IC50 (RVH-421; Homo sapiens, RVH-421): > 5 µM
IC50 (NCI-H2122; Homo sapiens, NCI-H2122): > 5 µM
IC50 (NB14; Homo sapiens, NB14): > 5 µM
IC50 (CaR-1; Homo sapiens, CaR-1): > 5 µM
IC50 (SK-OV-3; Homo sapiens, SK-OV-3): > 5 µM
IC50 (KYSE-180; Homo sapiens, KYSE-180): > 5 µM
IC50 (NCI-H1792; Homo sapiens, NCI-H1792): > 5 µM
IC50 (OE19; Homo sapiens, OE19): > 5 µM
IC50 (DMS-273; Homo sapiens, DMS-273): > 5 µM
IC50 (COLO-680N; Homo sapiens, COLO-680N): > 5 µM
IC50 (MOLT-13; Homo sapiens, MOLT-13): > 5 µM
IC50 (Hs-578T; Homo sapiens, Hs-578T): > 5 µM
IC50 (HN; Homo sapiens, HN): > 5 µM
IC50 (A2780; Homo sapiens, A2780): > 5 µM
IC50 (UMUC3; Homo sapiens, UMUC3): > 5 µM
IC50 (KYSE-450; Homo sapiens, KYSE-450): > 5 µM
IC50 (ChaGo-K-1; Homo sapiens, ChaGo-K-1): > 5 µM
IC50 (NCI-H1703; Homo sapiens, NCI-H1703): > 5 µM
IC50 (MC-IXC; Homo sapiens, MC-IXC): > 5 µM
IC50 (NCI-H460; Homo sapiens, NCI-H460): > 5 µM
IC50 (NCI-H1623; Homo sapiens, NCI-H1623): > 5 µM
IC50 (MDA-MB-157; Homo sapiens, MDA-MB-157): > 5 µM
IC50 (SW-620; Homo sapiens, SW-620): > 5 µM
IC50 (GMS-10; Homo sapiens, GMS-10): > 5 µM
IC50 (T-24; Homo sapiens, T-24): > 5 µM
IC50 (COLO-792; Homo sapiens, COLO-792): > 5 µM
IC50 (HOS; Homo sapiens, HOS): > 5 µM
IC50 (FaDu; Homo sapiens, FaDu): > 5 µM
IC50 (Capan-2; Homo sapiens, Capan-2): > 5 µM
IC50 (HT-1080; Homo sapiens, HT-1080): > 5 µM
IC50 (HCC1954; Homo sapiens, HCC1954): > 5 µM
IC50 (NCI-H1693; Homo sapiens, NCI-H1693): > 5 µM
IC50 (CAL-12T; Homo sapiens, CAL-12T): > 5 µM
IC50 (CAL-54; Homo sapiens, CAL-54): > 5 µM

CN(C)C(=N)NC(=N)N [METFORMIN]
IC50 (G-401; Homo sapiens, G-401): 1590 µM
IC50 (HT55; Homo sapiens, HT55): > 20000 µM
IC50 (NCI-H2122; Homo sapiens, NCI-H2122): > 20000 µM
IC50 (CaR-1; Homo sapiens, CaR-1): > 20000 µM
IC50 (KYSE-180; Homo sapiens, KYSE-180): 9060 µM
IC50 (NCI-H1792; Homo sapiens, NCI-H1792): > 20000 µM
IC50 (OE19; Homo sapiens, OE19): > 20000 µM
IC50 (DMS-273; Homo sapiens, DMS-273): 13600 µM
IC50 (MOLT-13; Homo sapiens, MOLT-13): 556 µM
IC50 (Hs-578T; Homo sapiens, Hs-578T): > 20000 µM
IC50 (HN; Homo sapiens, HN): > 20000 µM
IC50 (A2780; Homo sapiens, A2780): 4880 µM
IC50 (UMUC3; Homo sapiens, UMUC3): 12800 µM
IC50 (KYSE-450; Homo sapiens, KYSE-450): > 20000 µM
IC50 (ChaGo-K-1; Homo sapiens, ChaGo-K-1): 8890 µM
IC50 (NCI-H1703; Homo sapiens, NCI-H1703): 17300 µM
IC50 (MC-IXC; Homo sapiens, MC-IXC): 7890 µM
IC50 (NCI-H460; Homo sapiens, NCI-H460): > 20000 µM
IC50 (GMS-10; Homo sapiens, GMS-10): > 20000 µM
IC50 (COLO-792; Homo sapiens, COLO-792): 7510 µM
IC50 (HOS; Homo sapiens, HOS): > 20000 µM
IC50 (FaDu; Homo sapiens, FaDu): 11200 µM
IC50 (HT-1080; Homo sapiens, HT-1080): > 20000 µM
IC50 (NCI-H1693; Homo sapiens, NCI-H1693): > 20000 µM
IC50 (CAL-54; Homo sapiens, CAL-54): 3360 µM

Cc1cn(-c2cc(NC(=O)c3ccc(C)c(Nc4nccc(-c5cccnc5)n4)c3)cc(C(F)(F)F)c2)cn1 [NILOTINIB]
IC50 (G-401; Homo sapiens, G-401): > 2 µM
IC50 (HT55; Homo sapiens, HT55): > 2 µM
IC50 (RVH-421; Homo sapiens, RVH-421): > 2 µM
IC50 (NCI-H2122; Homo sapiens, NCI-H2122): > 2 µM
IC50 (NB14; Homo sapiens, NB14): > 2 µM
IC50 (CaR-1; Homo sapiens, CaR-1): > 2 µM
IC50 (SK-OV-3; Homo sapiens, SK-OV-3): > 2 µM
IC50 (KYSE-180; Homo sapiens, KYSE-180): > 2 µM
IC50 (NCI-H1792; Homo sapiens, NCI-H1792): > 2 µM
IC50 (OE19; Homo sapiens, OE19): > 2 µM
IC50 (DMS-273; Homo sapiens, DMS-273): > 2 µM
IC50 (COLO-680N; Homo sapiens, COLO-680N): > 2 µM
IC50 (MOLT-13; Homo sapiens, MOLT-13): > 2 µM
IC50 (Hs-578T; Homo sapiens, Hs-578T): > 2 µM
IC50 (HN; Homo sapiens, HN): > 2 µM
IC50 (A2780; Homo sapiens, A2780): > 2 µM
IC50 (UMUC3; Homo sapiens, UMUC3): > 2 µM
IC50 (KYSE-450; Homo sapiens, KYSE-450): > 2 µM
IC50 (ChaGo-K-1; Homo sapiens, ChaGo-K-1): > 2 µM
IC50 (NCI-H1703; Homo sapiens, NCI-H1703): 1.19 µM
IC50 (MC-IXC; Homo sapiens, MC-IXC): > 2 µM
IC50 (NCI-H460; Homo sapiens, NCI-H460): > 2 µM
IC50 (NCI-H1623; Homo sapiens, NCI-H1623): > 2 µM
IC50 (MDA-MB-157; Homo sapiens, MDA-MB-157): > 2 µM
IC50 (SW-620; Homo sapiens, SW-620): > 2 µM
IC50 (GMS-10; Homo sapiens, GMS-10): > 2 µM
IC50 (T-24; Homo sapiens, T-24): > 2 µM
IC50 (COLO-792; Homo sapiens, COLO-792): > 2 µM
IC50 (HOS; Homo sapiens, HOS): > 2 µM
IC50 (FaDu; Homo sapiens, FaDu): > 2 µM
IC50 (Capan-2; Homo sapiens, Capan-2): > 2 µM
IC50 (HT-1080; Homo sapiens, HT-1080): > 2 µM
IC50 (HCC1954; Homo sapiens, HCC1954): > 2 µM
IC50 (NCI-H1693; Homo sapiens, NCI-H1693): > 2 µM
IC50 (CAL-12T; Homo sapiens, CAL-12T): > 2 µM
IC50 (CAL-54; Homo sapiens, CAL-54): > 2 µM

CO[C@H]1C[C@@H]2CC[C@@H](C)[C@@](O)(O2)C(=O)C(=O)N2CCCC[C@H]2C(=O)O[C@H]([C@H](C)C[C@@H]2CC[C@@H](OC(=O)C(C)(CO)CO)[C@H](OC)C2)CC(=O)[C@H](C)/C=C(\C)[C@@H](O)[C@@H](OC)C(=O)[C@H](C)C[C@H](C)/C=C/C=C/C=C/1C [TEMSIROLIMUS]
IC50 (G-401; Homo sapiens, G-401): 0.089 µM
IC50 (HT55; Homo sapiens, HT55): > 0.2 µM
IC50 (RVH-421; Homo sapiens, RVH-421): 0.187 µM
IC50 (NCI-H2122; Homo sapiens, NCI-H2122): > 0.2 µM
IC50 (NB14; Homo sapiens, NB14): 0.1 µM
IC50 (CaR-1; Homo sapiens, CaR-1): > 0.2 µM
IC50 (SK-OV-3; Homo sapiens, SK-OV-3): > 0.2 µM
IC50 (KYSE-180; Homo sapiens, KYSE-180): > 0.2 µM
IC50 (NCI-H1792; Homo sapiens, NCI-H1792): > 0.2 µM
IC50 (OE19; Homo sapiens, OE19): > 0.2 µM
IC50 (DMS-273; Homo sapiens, DMS-273): > 0.2 µM
IC50 (COLO-680N; Homo sapiens, COLO-680N): > 0.2 µM
IC50 (MOLT-13; Homo sapiens, MOLT-13): > 0.2 µM
IC50 (Hs-578T; Homo sapiens, Hs-578T): 0.0659 µM
IC50 (HN; Homo sapiens, HN): > 0.2 µM
IC50 (A2780; Homo sapiens, A2780): 0.00588 µM
IC50 (UMUC3; Homo sapiens, UMUC3): 0.0692 µM
IC50 (KYSE-450; Homo sapiens, KYSE-450): > 0.2 µM
IC50 (ChaGo-K-1; Homo sapiens, ChaGo-K-1): > 0.2 µM
IC50 (NCI-H1703; Homo sapiens, NCI-H1703): 0.0232 µM
IC50 (MC-IXC; Homo sapiens, MC-IXC): > 0.2 µM
IC50 (NCI-H460; Homo sapiens, NCI-H460): > 0.2 µM
IC50 (NCI-H1623; Homo sapiens, NCI-H1623): > 0.2 µM
IC50 (MDA-MB-157; Homo sapiens, MDA-MB-157): > 0.2 µM
IC50 (SW-620; Homo sapiens, SW-620): 0.106 µM
IC50 (GMS-10; Homo sapiens, GMS-10): > 0.2 µM
IC50 (T-24; Homo sapiens, T-24): 0.0139 µM
IC50 (COLO-792; Homo sapiens, COLO-792): > 0.2 µM
IC50 (HOS; Homo sapiens, HOS): 0.145 µM
IC50 (FaDu; Homo sapiens, FaDu): > 0.2 µM
IC50 (Capan-2; Homo sapiens, Capan-2): > 0.2 µM
IC50 (HT-1080; Homo sapiens, HT-1080): 0.0179 µM
IC50 (HCC1954; Homo sapiens, HCC1954): > 0.2 µM
IC50 (NCI-H1693; Homo sapiens, NCI-H1693): 0.0922 µM
IC50 (CAL-12T; Homo sapiens, CAL-12T): > 0.2 µM
IC50 (CAL-54; Homo sapiens, CAL-54): 0.118 µM

CISPLATIN
IC50 (G-401; g-401): 7.25 µM
IC50 (HT55; ht55): 118 µM
IC50 (RVH-421; rvh-421): 40.6 µM
IC50 (NCI-H2122; nci-h2122): 15.3 µM
IC50 (NB14; nb14): 171 µM
IC50 (CaR-1; car-1): 755 µM
IC50 (SK-OV-3; sk-ov-3): 614 µM
IC50 (KYSE-180; kyse-180): 5.82 µM
IC50 (NCI-H1792; nci-h1792): 14.9 µM
IC50 (OE19; oe19): 709 µM
IC50 (DMS-273; dms-273): 9.7 µM
IC50 (COLO-680N; colo-680n): 23.6 µM
IC50 (MOLT-13; molt-13): 381 µM
IC50 (Hs-578T; hs-578-t): 11.3 µM
IC50 (HN; hn): 36 µM
IC50 (A2780; a2780): 6.39 µM
IC50 (UMUC3; umuc3): 3.93 µM
IC50 (KYSE-450; kyse-450): 72.8 µM
IC50 (ChaGo-K-1; chago-k-1): 15.2 µM
IC50 (NCI-H1703; nci-h1703): 148 µM
IC50 (MC-IXC; mc-ixc): 1.68 µM
IC50 (NCI-H460; nci-h460): 345 µM
IC50 (NCI-H1623; nci-h1623): 46.9 µM
IC50 (MDA-MB-157; mda-mb-157): 290 µM
IC50 (SW-620; sw-620): 160 µM
IC50 (GMS-10; gms-10): 85.2 µM
IC50 (T-24; t-24): 5.56 µM
IC50 (COLO-792; colo-792): 5.73 µM
IC50 (HOS; hos): 2.56 µM
IC50 (FaDu; fadu): 8.92 µM
IC50 (Capan-2; capan-2): 243 µM
IC50 (HT-1080; ht-1080): 23.9 µM
IC50 (HCC1954; hcc1954): 1030 µM
IC50 (NCI-H1693; nci-h1693): 122 µM
IC50 (CAL-12T; cal-12t): 625 µM
IC50 (CAL-54; cal-54): 12.2 µM
